Data on two sequences can be found in paper PMC10762078, “Role of UPF1-LIN28A interaction during early differentiation of pluripotent stem cells” (Nature Communications, 2024).

Ends that are not written are not given here.

Test [1] concerns CHA15 cells transcriptome / NMD targets. Kind of test: RNA-seq of CPP-peptide-treated CHA15 cells (NMD targets, SDGs; Fig. 6a, b, d; Supplementary Fig. 6a; Supplementary Data 2). Particulars: for gene expression, CPP-P8 / P1: vs P1, RNA-seq; for number of NMD targets significantly changed by CPP-P8: hESCs (CHA15). The format is cell-based, Homo sapiens. As to the method: (§1) For CPP-conjugated peptide delivery, HeLa, 293T, and PA-1 cells were incubated with CPP-conjugated peptides or CPP-FITC at 2 μM in DMEM with 10% FBS for 12 h a day before cell harvest. hPSCs were treated with CPP-conjugated peptides at 10 μM in mTeSR Plus Medium, […] The ROCK inhibitor (Tocris Bioscience, Y-27632) treated-hPSCs were dissociated into single cells using Accutase (Merck, SCR005) and differentiated into ectoderm, mesoderm, and endoderm using the STEMdiff Trilineage Differentiation Kit ([…] Technologies, 05230) following the manufacturer’s protocol. Differentiated cells treated with CPP-conjugated peptides were analysed at 0, 3, and 5 days for ectoderm and endoderm, and at 0, 3, and 4 days for mesoderm.
Total RNA concentration was calculated using Quant-IT RiboGreen (Invitrogen, R11490). To assess the integrity of the total RNA, samples were run on a TapeStation RNA screentape (Agilent). Only high-quality RNA preparations with RNA integrity number greater than 7.0 were used for the RNA library construction. A library was independently prepared with 1 μg of total RNA from each sample using the Illumina TruSeq Stranded mRNA Sample Prep Kit (Illumina, 20020594). The first step in the workflow involves purifying poly‐A-containing mRNA molecules using poly‐T‐attached magnetic beads. Following purification, mRNA was fragmented into small pieces using divalent cations at elevated temperatures. The cleaved RNA fragments were copied into first-strand cDNA using SuperScript II reverse transcriptase (Invitrogen, 18064022) and random primers. This was followed by second-strand cDNA synthesis using DNA polymerase I, RNase H, and dUTP. These cDNA fragments underwent an end repair process, adding a single ‘A’ base and ligating the adapters. The products were purified and enriched via PCR to create the final cDNA library. The libraries were quantified using the KAPA Library Quantification Kits for Illumina Sequencing platforms according to the qPCR Quantification Protocol Guide (KAPA BIOSYSTEMS, KR0405) and qualified using the TapeStation D1000 ScreenTape (Agilent). Indexed libraries were then submitted to an Illumina NovaSeq (Illumina), and Macrogen Inc. performed paired-end (2 × 100 bp) sequencing.
We pre-processed the raw reads from the sequencer to remove low-quality reads and adapter sequences before analysis and aligned the processed reads to Homo sapiens (GRCh37) using HISAT v2.1.0[52]. HISAT utilises two indices for alignment (a global whole-genome index and tens of thousands of small local indexes). These two types of indices are constructed using the same Burrows-Wheeler transform (BWT)/graph FM index (GFM) as Bowtie2. The reference genome sequence of Homo sapiens (GRCh37) and the annotation data were downloaded from the NCBI database. Transcript assembly was processed using StringTie v1.3.4d[53],[54]. […] Differentially expressed genes (DEGs) were analysed by ratio of FPKM or using DESeq2 with read counts. Log2 fold-change value of the NMD targets[25],[32], three germ layer markers, miRNA targets, or SDGs was converted into cumulative frequency curve using the R function, ‘ecdf’ (version 4.0.5). Gene functional classification and Gene ontology (GO) were performed using g:Profiler[56].

For another test, the system named is hPSCs (CHA15, H9, Pro2). Kind of test: Long-term culture with CPP-peptides: morphology, spontaneous differentiation, lineage marker RT-qPCR (Supplementary Fig. 6c). The test is classed as cell-based, human. Here is the method:
as §1, with “mesoderm. […]” for “mesoderm.”
cDNA was synthesised using RevertAid Reverse Transcriptase (Thermo Fisher Scientific, EP0441) with synthesised random hexamer (Macrogen) for total RNA or stem-loop primers for miRNA. For RT-qPCR reactions, the SensiFAST SYBR No-ROX kit (Meridian Bioscience) was used according to the manufacturer’s protocol. All data analysis and visualisation were conducted using R 3.6.1 [www.r-project.org] or GraphPad Prism 10. RT primers for miRNA and RT-qPCR primer sequences are provided in Supplementary Data 6. […]
Cell m orphology was visualised by phase contrast m icroscopy. T he red boundary indicated the spontaneously differentiated hPSCs. RT -qPCR was perform ed to m easure the relative levels of each lineage m ark er. […]
5p and m iR-16- 5p was shown as CDF graphs. T he relative level of m RNA was norm alised to that of U6 snRNA in (c, d, and f). K–S tests were used for e and f. Unpaired Student’s t-test was used for c , d, and f . * p < 0.05, ** p < 0.01, *** p < 0.001. Exact p -values were provided in Source data. Data are presented as m ean values ± SEM. All statistical test used were two- sided. T he m inim um num ber of independent biological replicate experim ents was a and e n = 2, b–d and f n = 3. T he experim ents were conducted three tim es, each iteration producing consistent results.

Where [2] appears, read: RT-qPCR, CHA15 cell, group 1, mean of set1-set3, Mean of A = 1.
[3] abbreviates: RT-qPCR, CHA15 cell, group 2, mean of set1-set3, Mean of A = 1.
Where [4] appears, read: RT-qPCR, CHA15 cell, group 3, mean of set1-set3, Mean of A = 1.
Setting [5] is: RT-qPCR, H9 cell, group 1, mean of set1-set3, Mean of A = 1.
[6] abbreviates: RT-qPCR, H9 cell, group 2, mean of set1-set3, Mean of A = 1.
The mark [7] stands for this setting: RT-qPCR, Pro2 cell, group 1, mean of set1-set3, Mean of A = 1.
Where [8] appears, read: RT-qPCR, Pro2 cell, group 2, mean of set1-set3, Mean of A = 1.

As to “KKKWCRKKKSSADEKRYRALKRTAERELLMNA [CPP-P8, CPP conjugated to P8]”, the “gene expression, CPP-P8 / P1” value in test [1] (ACTC1) is given as -1.36. In addition, in test [1] (ACTN1), the “gene expression, CPP-P8 / P1” value was -1.23. The “gene expression, CPP-P8 / P1” value in test [1] (ADAR) is on record as -1.28. Moreover, in test [1] (ADM), the “gene expression, CPP-P8 / P1” value was -2.99. The “levels of the NMD targets” value in test [1] (CHA15, 10 μM daily for 5 days) is “efficiently depressed the levels of the NMD targets”. Also, the “transcripts with significant two-fold change” value in test [1] (CHA15, 5 days, p < 0.05) is listed as 69 transcripts. For the same sequence, in test [1] (CHA15, P8 vs P1 plot (Fig. 6d)), the “CAPN6 expression (dot plot)” value was found to be 0.9142, the “CDH6 expression (dot plot)” value is on record as 0.924, the “CYP26A1 expression (dot plot)” value amounted to 1.759 and the “DLX5 expression (dot plot)” value was 0.5911. For the same sequence, in test [1] (CHA15, |Fc| > 1.2, P < 0.05, of 286 NMD targets), the “number of NMD targets downregulated” value turned out to be 32 transcripts. The “number of NMD targets significantly changed by CPP-P8” value in test [1] (|Fc| > 1.2, p < 0.05) is on record as 51. Further, in test [1] (hPSCs, over 1.2-fold), the “NMD targets commonly regulated with UPF1- and LIN28A-depletion” value came out at 10 NMD targets; the “transcripts commonly regulated with UPF1- and LIN28A-depletion” value is reported as 230 transcripts. Moreover, the “cell morphology and spontaneous differentiation” value in the test on hPSCs (CHA15, H9, Pro2) (hPSCs, over 15 days) was “altered the cell morphology, induced spontaneous differentiation, and regulated the levels of differentiated makers”. In addition, the “levels of differentiated markers” value with hPSCs (CHA15, H9, Pro2) (hPSCs, proliferation) is on record as “upregulated the levels of differentiated markers”.
As to KKKWCRKKKSSADEKRYRALKRTAERELLMNA [P8], the “number of NMD targets significantly changed by CPP-P8” value in test [1] (|Fc| > 1.2, p < 0.05) was found to be 51. Also, the “NMD targets as share of significantly changed genes” value in test [1] (hPSCs) was 2.3%. Also, the “number of transcripts significantly regulated” value in test [1] (hPSCs, |Fc| > 1.2, p < 0.05) worked out at 2196 transcripts. In the test on hPSCs (CHA15, H9, Pro2) (setting [2]), the “CDH9, Mean of column B” value is on record as 3.237; the “DLK1, Mean” value is 13.42; the “DMBX1, Mean” value is reported as 7.311; the “RAX, Mean” value is reported as 3.757. In addition, in the test on hPSCs (CHA15, H9, Pro2) (setting [3]), the “DLK1, Mean” value is on record as 23.82; the “LHX2, Mean” value is reported as 41.74; the “POU5F1, Mean of column B” value came out at 0.6246; the “RAX, Mean” value is 18.83. In the test on hPSCs (CHA15, H9, Pro2) (setting [4]), the “CDH9, Mean of column B” value was 2.791; the “LHX2, Mean” value turned out to be 5.887; the “POU5F1, Mean of column B” value amounted to 0.7547; the “RAX, Mean” value was found to be 2.315. Also, in the test with hPSCs (CHA15, H9, Pro2) (setting [5]), the “DLK1, Mean” value was 3.511; the “DMBX1, Mean” value amounted to 5.531; the “LHX2, Mean” value is 2.919; the “PAX6, Mean of column B” value is 3.972. Besides, in the test on hPSCs (CHA15, H9, Pro2) (setting [6]), the “DLK1, Mean” value is 2.588; the “LHX2, Mean” value was determined as 115.8; the “NANOG, Mean” value is on record as 0.1136; the “TBX6, Mean of column B” value came to 22.31. In the test on hPSCs (CHA15, H9, Pro2) (setting [7]), the “DLK1, Mean” value is 6.526; the “LHX2, Mean” value is on record as 0.3053; the “POU5F1, Mean of column B” value stood at 0.5752; the “RAX, Mean” value is listed as 3.096. In the test on hPSCs (CHA15, H9, Pro2) (setting [8]), the “DLK1, Mean” value was 9.273; the “LHX2, Mean” value is 16.93; the “NANOG, Mean” value is 0.2569; the “POU5F1, Mean of column B” value is listed as 0.08931.
